According to patent US20240041838A1, “METHODS AND COMPOSITIONS FOR INHIBITION OF NEUTROPHIL RECRUITMENT IN MYCOCARDIAL ISCHEMIA-REPERFUSION INJURY” (University of Connecticut, priority 2022, published 2024):

Key:
[1] = tested on: human neutrophils; test: microfluidic perfusion assay: neutrophil rolling and arrest on P-selectin/ICAM-1 with IL-8; format: cell-based; conditions: 10 μM
Description: The assembly of the microfluidic devices used in this study and the coating of coverslips with recombinant human P-selectin-Fc and ICAM-1-Fc with or without IL-8 have been described previously. Briefly, coverslips were coated with P-selectin-Fc (2 μg·ml^−1) and ICAM-1-Fc (10 μg·ml^−1) without or with IL-8 (10 μg·ml^−1) for two hours and then blocked for one hour with casein (1%) at RT. After coating, coverslips were sealed with polydimethylsiloxane chips by magnetic clamps to create flow chamber channels ˜29 μm high and ˜300 μm across. By modulating the pressure between the inlet well and the outlet reservoir, 6 dyn·cm^−2 wall shear stress was applied in all experiments.
To study the rolling and arrest of neutrophils, isolated human neutrophils (5×10^6 cells·ml^−1) were perfused in the microfluidic device over a substrate of recombinant human P-selectin-Fc and recombinant human ICAM-1-Fc with or without IL-8 under a shear stress of 6 dyn·cm^−2. […] Time-lapse images (one frame per second) were taken by an IX71 inverted research microscope (Olympus America) with a 40× NA 0.9 air objective during the perfusion to quantify rolling velocity. The quantification was done using the “Manual tracking” plugin in FIJI-ImageJ v2.0. Cell tracks (FIG. 1A) and rolling velocity were obtained (FIGS. 1B, 2C). After perfusion with neutrophils for 10 minutes, the microfluidic device was washed with RPMI-1640 without phenol red plus 2% HSA for 5 minutes. Then, the arrested neutrophils were counted in nine fields-of-view per group (FIG. 1D).

[2] = tested on: neutrophils; conditions: reported; cited from earlier work
[3] = tested on: IL-8-induced Ca^2+ signal in neutrophils; test: intracellular Ca2+ flux by Fluo-4 time-resolved flow cytometry; format: cell-based, human; conditions: 10 μM, RT 1 hour; 1 μg·mL^−1 IL-8
Description: To monitor the dynamics of intracellular calcium (Ca^2+) flux, neutrophils (2×10^6 cells·mL^−1 in RPMI-1640 without phenol red plus 2% HSA) were incubated with Fluo-4 (4 μg·mL^−1) for one hour at RT. After washes, neutrophils were resuspended in RPMI-1640 without phenol red plus 2% HSA and assessed by an LSRII analyzer (BD Biosciences, San Jose, CA). One minute after analyzing, 1 μg·mL^−1 IL-8 was added to the cells. Cells were put back into the analyzer for another 9 minutes. The curves showing the dynamics of intracellular Ca^2+ flux (FIG. 2H) were generated by FlowJo software (version 10.6). The quantification of Fluo-4 MFI (FIG. 2I) was analyzed by FlowJo software (version 10.6) and obtained from three individual experiments.

[4] = tested on: Rac-1 activation in HL60-CXCR2 or HL60 cells; test: Rac-1-GTP pull-down and western blot in HL60 / HL60-CXCR2 cells; format: cell-based; conditions: 10 μM, RT 1 hour
Description: The HL60 cells and CXCR2-expressing HL60 cells (HL60-CXCR2)(50) were gifts from Dr. Orion D. Weiner at the University of California San Francisco and Dr. Ann Richmond at the Vanderbilt University School of Medicine, respectively. HL60-CXCR2 cells were selected with G418 ([…]) to maintain CXCR2 expression. Cells were maintained in culture medium (RPMI-1640, 10% FBS, 100 μg·mL^−1 penicillin, 100 μg·mL^−1 streptomycin, and 250 ng·mL^−1 amphotericin B) at 37° C. and 5% CO2. In most experiments, cells were differentiated with 1.3% DMSO for 7 days before assays. Cells were checked monthly for mycoplasma infection using the e-Myco plus Mycoplasma PCR Detection Kit.
After washes, cells were resuspended in RPMI-1640 without phenol red (10^7 cells·mL^−1) and incubated with or without stimulators (100 nM fMLP for HL60, 1 μg·mL^−1 IL-8 for HL60-CXCR2) at RT for 1 minute. Cells were lysed by 1:1 addition of 2× Triton X-100 lysis buffer (final concentration: 1% Triton X-100, 50 mM HEPES pH 7.0, 150 mM NaCl, 10% glycerol, 1.5 mM MgCl2, 1 mM EGTA, 1 mM sodium orthovanadate, 1 mM phenylmethylsulfonyl fluoride, plus protease inhibitor mixture—one Pierce protease inhibitor mini-tablet per 5 mL 2× buffer) on ice for 5 minutes. After centrifuging at 16,000×g, 4° C. for 8 minutes, supernatants were saved as protein samples.

[5] = tested on: human neutrophils; test: total ROS production of isolated human neutrophils after PMA; format: cell-based; conditions: 10 μM; after 50 min of 100 nM PMA; ICAM-1-coated wells
Description: ROS production of isolated human neutrophils was quantified by using the Total ROS Assay kit from Invitrogen. A black, clear bottom, non-treated 96-well plate was used in this assay. Before the assay, the 96-well plate was coated with 10 μg·mL^−1 human ICAM-1-Fc at RT for 2 hours and washed twice with PBS. […] After centrifuging at 300×g, RT for 2 min, cells were resuspended at 10^6 cells·mL^−1 in the ROS Assay Stain Solution from the kit and incubated with 2 μg·mL^−1 mouse anti-human CD18 blocking mAb (TS1/18 to block neutrophil adhesion) or isotype control at RT for 10 min. The 100 μL·well^−1 neutrophils (3 replicates per group) were seeded into the ICAM-1-coated 96-well plate. The background ROS before stimulation was measured by Cytation 1 Cell Imaging Multi-Mode Reader (Filter set: Green, Ex: 485/20 nm, Em: 528/20 nm, BioTek, Santa Clara, CA). Then 100 nM PMA was added to each well, and ROS production was measured by Cytation 1 Cell Imaging Multi-Mode Reader every 5 minutes.

Compound: CC(C)(C)C(=O)/C(=C\c1cccc([N+](=O)[O-])c1)n1cncn1 [Nexinhib20, 4,4-dimethyl-1-(3-nitrophenyl)-2-(1H-1,2,4-triazol-1-yl)-1-penten-3-one]
- effect of IL-8 on rolling velocity of treated neutrophils ([1]; RT 1 hour): did not slow down
- neutrophil arrest on IL-8 substrate ([1]; RT 1 hour before perfusion): failed to arrest
- decrease of number of arrested neutrophils ([1]; RT 1 hour, P-selectin/ICAM-1/IL-8, 6 dyn·cm^−2): about 90%
- number of arrested neutrophils ([1]; RT 1 hour, P-selectin/ICAM-1/IL-8, 6 dyn·cm^−2, vehicle about 200): about 20 cells per field-of-view
- inhibition of neutrophil extracellular superoxide anion production [2]: about 50%
- IL-8-induced Ca^2+ signal (Fluo-4) [3]: potently blocked
- IL-8-induced increase of Rac-1-GTP ([4]; HL60-CXCR2 cells, IL-8 1 μg·mL^−1, 1 minute, increase about 80% without drug): eliminated these increases
- fMLP-induced increase of Rac-1-GTP ([4]; HL60 cells, fMLP 100 nM, 1 minute, increase about 50% without drug): eliminated these increases
- total ROS production [5]: significantly reduced
